In assay [1] the test system is Calpain activity in SH-SY5Y cells. Nature of the assay: SH-SY5Y Suc-LLVY-AMC fluorescence assay. The assay is classed as cell-based. The note with it: SH-SY5Y cells, 100 uM Suc-LLVY-AMC, read-out: SH-SY5Y + AMC IC50.
The next assay addresses T1, Human Calpain 2/NS1 (Homo sapiens, UniProt P17655).
T1 sequence (P17655 1-700): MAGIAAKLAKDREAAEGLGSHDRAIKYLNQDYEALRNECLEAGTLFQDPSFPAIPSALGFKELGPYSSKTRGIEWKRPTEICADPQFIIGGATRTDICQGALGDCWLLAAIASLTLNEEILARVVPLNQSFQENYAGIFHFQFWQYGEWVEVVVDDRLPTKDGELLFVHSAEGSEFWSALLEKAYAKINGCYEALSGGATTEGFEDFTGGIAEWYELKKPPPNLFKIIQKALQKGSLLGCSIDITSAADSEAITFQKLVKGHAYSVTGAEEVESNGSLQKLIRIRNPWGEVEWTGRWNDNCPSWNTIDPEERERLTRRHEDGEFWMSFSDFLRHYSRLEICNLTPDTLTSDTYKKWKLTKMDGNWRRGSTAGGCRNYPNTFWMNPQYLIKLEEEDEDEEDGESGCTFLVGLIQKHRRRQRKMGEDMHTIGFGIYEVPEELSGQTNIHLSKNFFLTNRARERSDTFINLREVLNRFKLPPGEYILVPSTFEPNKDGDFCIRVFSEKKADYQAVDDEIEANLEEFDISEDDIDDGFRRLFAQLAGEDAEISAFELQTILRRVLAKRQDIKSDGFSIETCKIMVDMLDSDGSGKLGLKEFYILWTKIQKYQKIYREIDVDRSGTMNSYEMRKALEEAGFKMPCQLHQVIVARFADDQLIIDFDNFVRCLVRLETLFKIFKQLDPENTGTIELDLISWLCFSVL
T1 sequence (P04632 1-268 partner): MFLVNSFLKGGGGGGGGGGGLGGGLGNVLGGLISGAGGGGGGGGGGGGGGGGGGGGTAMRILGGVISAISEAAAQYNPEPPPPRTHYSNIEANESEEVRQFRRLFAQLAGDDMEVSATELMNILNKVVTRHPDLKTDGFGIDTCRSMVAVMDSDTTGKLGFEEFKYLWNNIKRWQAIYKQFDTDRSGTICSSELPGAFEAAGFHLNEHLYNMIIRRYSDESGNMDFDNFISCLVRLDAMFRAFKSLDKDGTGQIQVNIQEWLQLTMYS
Nature of the assay: Calpain inhibition, continuous fluorescence (FRET substrate) assay, calpain 2. Type of assay: biochemical. As to conditions: SensoLyte 520 FRET substrate, 25C. In outline: (§1)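 Continuous FRET read-out (ex 490/em 520 nm) of 5-FAM/QXL 520 substrate cleavage, started by adding substrate with CaCl2 for in-situ activation after enzyme–inhibitor preincubation at 25 °C. Buffer was Tris 50 mM pH 7.5, NaCl 100 mM, DTT 1 mM. IC50 fitted (4-parameter) from rates over 1-5 min.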

In assay [2] the test system is Calpain activity in SH-SY5Y cells. Nature of the assay: SH-SY5Y spectrin breakdown product (SBDP-150) western blot assay. The assay is classed as cell-based. As to conditions: SH-SY5Y cells, 25 uM A23187, SBDP-150 western blot, read-out: SH-SY5Y Spectrin IC50.
Another assay deals with T2, Human Calpain 1/NS1 (Homo sapiens, UniProt P07384).
T2 sequence (P07384 1-714): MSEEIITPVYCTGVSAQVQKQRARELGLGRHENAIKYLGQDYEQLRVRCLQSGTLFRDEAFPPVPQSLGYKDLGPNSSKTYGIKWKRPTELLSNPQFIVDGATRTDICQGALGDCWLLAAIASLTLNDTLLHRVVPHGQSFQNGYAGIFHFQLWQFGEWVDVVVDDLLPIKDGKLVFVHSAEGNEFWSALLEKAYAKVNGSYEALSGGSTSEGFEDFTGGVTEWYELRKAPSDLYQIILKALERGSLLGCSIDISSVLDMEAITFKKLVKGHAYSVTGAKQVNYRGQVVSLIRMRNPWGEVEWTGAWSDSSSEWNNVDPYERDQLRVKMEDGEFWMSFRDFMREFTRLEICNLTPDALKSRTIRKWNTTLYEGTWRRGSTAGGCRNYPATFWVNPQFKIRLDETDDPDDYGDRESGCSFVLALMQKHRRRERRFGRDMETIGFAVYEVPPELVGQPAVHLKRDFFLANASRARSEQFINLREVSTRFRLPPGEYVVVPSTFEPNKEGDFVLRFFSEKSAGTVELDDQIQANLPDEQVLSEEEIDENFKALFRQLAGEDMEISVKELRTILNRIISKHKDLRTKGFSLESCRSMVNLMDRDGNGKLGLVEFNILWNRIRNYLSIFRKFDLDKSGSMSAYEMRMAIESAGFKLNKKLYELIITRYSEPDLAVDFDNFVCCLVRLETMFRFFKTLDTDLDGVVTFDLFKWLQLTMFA
T2 sequence (P04632 1-268 partner): T1 sequence (P04632 1-268 partner)
In words: Calpain inhibition, continuous fluorescence (FRET substrate) assay, calpain 1. Type of assay: biochemical. As to conditions: SensoLyte 520 FRET substrate, 25C. In outline:
as §1

The next assay deals with T3, Human Calpain 9/NS1 (Homo sapiens, UniProt O14815).
T3 sequence (O14815 1-690): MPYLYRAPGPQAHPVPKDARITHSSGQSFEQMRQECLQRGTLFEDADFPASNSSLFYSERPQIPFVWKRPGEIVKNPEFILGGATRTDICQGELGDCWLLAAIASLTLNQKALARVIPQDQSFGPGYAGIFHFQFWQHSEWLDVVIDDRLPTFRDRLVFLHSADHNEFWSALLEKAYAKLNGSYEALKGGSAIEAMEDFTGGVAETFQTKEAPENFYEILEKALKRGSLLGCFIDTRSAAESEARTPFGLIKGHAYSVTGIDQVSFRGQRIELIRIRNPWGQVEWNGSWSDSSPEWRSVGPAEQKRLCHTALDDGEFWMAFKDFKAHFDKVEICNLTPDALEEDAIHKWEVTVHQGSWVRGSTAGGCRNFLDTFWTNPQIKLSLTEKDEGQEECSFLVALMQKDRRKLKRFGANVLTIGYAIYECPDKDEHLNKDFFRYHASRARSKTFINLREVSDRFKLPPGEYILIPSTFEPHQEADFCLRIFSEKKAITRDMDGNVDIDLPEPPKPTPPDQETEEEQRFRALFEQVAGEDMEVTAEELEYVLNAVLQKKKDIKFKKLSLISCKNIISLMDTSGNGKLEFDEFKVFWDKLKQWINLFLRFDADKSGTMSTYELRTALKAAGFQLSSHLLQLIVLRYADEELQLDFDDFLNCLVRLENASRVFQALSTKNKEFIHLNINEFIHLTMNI
T3 sequence (P04632 1-268 partner): T1 sequence (P04632 1-268 partner)
In words: Calpain inhibition, continuous fluorescence (FRET substrate) assay, calpain 9. Type of assay: biochemical. As to conditions: SensoLyte 520 FRET substrate, 25C. The essentials: as §1

With `O=C(NC(Cc1ccccc1)C(=O)c1ncco1)c1nsnc1-c1ccccc1` (centres unmarked) [Compound 85, N-(1-(OXAZOL-2-YL)-1-OXO-3-PHENYLPROPAN-2-YL)-4-PHENYL-1,2,5-THIADIAZOLE-3-CARBOXAMIDE], the IC50 in assay [1] (Homo sapiens) is less than 10 µM; against Human Calpain 2/NS1, more than 10 µM; in assay [2] (Homo sapiens), more than 25 µM; against Human Calpain 1/NS1 it was more than 10 µM; on Human Calpain 9/NS1 it was more than 10 µM.

Regarding `O=C(NC(Cc1ccccc1)C(=O)c1nc2ccccc2o1)c1nsnc1-c1ccccc1` (centres unmarked) [Compound 86, N-(1-(BENZO[d]OXAZOL-2-YL)-1-OXO-3-PHENYLPROPAN-2-YL)-4-PHENYL-1,2,5-THIADIAZOLE-3-CARBOXAMIDE], the IC50 is more than 25 µM in assay [1] (Homo sapiens); more than 10 µM on Human Calpain 2/NS1; more than 25 µM in assay [2] (Homo sapiens); more than 10 µM at Human Calpain 1/NS1; more than 10 µM against Human Calpain 9/NS1.

As for `Cc1nc(-c2ccccc2F)c(C(=O)NC(Cc2cccc(F)c2)C(=O)C(N)=O)o1` (centres unmarked) [Compound 87, N-(4-AMINO-1-(3-FLUOROPHENYL)-3,4-DIOXOBUTAN-2-YL)-4-(2-FLUOROPHENYL)-2-METHYLOXAZOLE-5-CARBOXAMIDE], the IC50 in assay [1] (Homo sapiens) was less than 10 µM; against Human Calpain 2/NS1 it was less than 3 µM; in assay [2] (Homo sapiens), 10 to 25 µM; against Human Calpain 1/NS1 it was less than 3 µM; against Human Calpain 9/NS1 it was less than 3 µM.

As for `Cc1nc(-c2cccc3sccc23)c(C(=O)NC(Cc2ccccc2)C(=O)C(N)=O)o1` (centres unmarked) [Compound 88, N-(4-AMINO-3,4-DIOXO-1-PHENYLBUTAN-2-YL)-4-(BENZO[b]THIOPHEN-4-YL)-2-METHYLOXAZOLE-5-CARBOXAMIDE], the IC50 is less than 10 µM in assay [1] (Homo sapiens); less than 3 µM on Human Calpain 2/NS1; more than 25 µM in assay [2] (Homo sapiens); less than 3 µM on Human Calpain 1/NS1; less than 3 µM against Human Calpain 9/NS1.

With `Cc1nc(-c2ccccc2F)c(C(=O)NC(Cc2cccc(Cl)c2)C(=O)C(N)=O)o1` (centres unmarked) [Compound 89, N-(4-AMINO-1-(3-CHLOROPHENYL)-3,4-DIOXOBUTAN-2-YL)-4-(2-FLUOROPHENYL)-2-METHYLOXAZOLE-5-CARBOXAMIDE], the IC50 in assay [1] (Homo sapiens) is less than 10 µM; against Human Calpain 2/NS1, less than 3 µM; in assay [2] (Homo sapiens), less than 10 µM; on Human Calpain 1/NS1 it was less than 3 µM; at Human Calpain 9/NS1, less than 3 µM.

In the case of `Cc1nc(-c2ccoc2Cl)c(C(=O)NC(Cc2ccccc2)C(=O)C(N)=O)o1` (centres unmarked) [Compound 90, N-(4-AMINO-3,4-DIOXO-1-PHENYLBUTAN-2-YL)-4-(2-CHLOROFURAN-3-YL)-2-METHYLOXAZOLE-5-CARBOXAMIDE], the half-inhibitory concentration (IC50) in assay [1] (Homo sapiens) is less than 10 µM; at Human Calpain 2/NS1 it was less than 3 µM; in assay [2] (Homo sapiens), 10 to 25 µM; at Human Calpain 1/NS1, less than 3 µM; at Human Calpain 9/NS1, less than 3 µM.

Take `Cc1nc(-c2cccc3ccsc23)c(C(=O)NC(Cc2ccccc2)C(=O)C(N)=O)o1` (centres unmarked) [Compound 91, N-(4-AMINO-3,4-DIOXO-1-PHENYLBUTAN-2-YL)-4-(BENZO[b]THIOPHEN-7-YL)-2-METHYLOXAZOLE-5-CARBOXAMIDE]: the IC50 was less than 10 µM in assay [1] (Homo sapiens); less than 3 µM at Human Calpain 2/NS1; less than 10 µM in assay [2] (Homo sapiens); less than 3 µM against Human Calpain 1/NS1; less than 3 µM against Human Calpain 9/NS1.

`Cc1nc(-c2coc(Cl)c2)c(C(=O)NC(Cc2ccccc2)C(=O)C(N)=O)o1` (centres unmarked) [Compound 92, N-(4-AMINO-3,4-DIOXO-1-PHENYLBUTAN-2-YL)-4-(5-CHLOROFURAN-3-YL)-2-METHYLOXAZOLE-5-CARBOXAMIDE]: the IC50 in assay [1] (Homo sapiens) was less than 10 µM; at Human Calpain 2/NS1, less than 3 µM; in assay [2] (Homo sapiens) it was 10 to 25 µM; on Human Calpain 1/NS1, less than 3 µM; at Human Calpain 9/NS1, less than 3 µM.

As to `O=C(NC(Cc1ccccc1)C(=O)c1nnn[nH]1)c1nsnc1-c1ccccc1` (centres unmarked) [Compound 93, N-(1-OXO-3-PHENYL-1-(1H-TETRAZOL-5-YL)PROPAN-2-YL)-4-PHENYL-1,2,5-THIADIAZOLE-3-CARBOXAMIDE], the IC50 in assay [1] (Homo sapiens) is more than 25 µM; against Human Calpain 2/NS1, more than 10 µM; in assay [2] (Homo sapiens) it was more than 25 µM; on Human Calpain 1/NS1, more than 10 µM; against Human Calpain 9/NS1, more than 10 µM.

For `NC(=O)C(=O)C(Cc1ccccc1)NC(=O)c1oc(C(F)F)nc1-c1cccc2cn[nH]c12` (centres unmarked) [Compound 94, N-(4-AMINO-3,4-DIOXO-1-PHENYLBUTAN-2-YL)-2-(DIFLUOROMETHYL)-4-(1H-INDAZOL-7-YL)OXAZOLE-5-CARBOXAMIDE], the IC50 in assay [1] was less than 10 µM; against Human Calpain 2/NS1 it was less than 3 µM; in assay [2] it was less than 10 µM; against Human Calpain 1/NS1, less than 3 µM; on Human Calpain 9/NS1, less than 3 µM.

Turning to `Cn1cc(C(=O)NC(Cc2ccc(C(F)(F)F)cc2)C(=O)C(N)=O)c(-c2ccccc2F)n1` (centres unmarked) [Compound 95, N-(4-AMINO-3,4-DIOXO-1-(4-(TRIFLUOROMETHYL)PHENYL)BUTAN-2-YL)-3-(2-FLUOROPHENYL)-1-METHYL-1H-PYRAZOLE-4-CARBOXAMIDE], the IC50 in assay [1] (Homo sapiens) was more than 25 µM; against Human Calpain 2/NS1 it was less than 3 µM; in assay [2] (Homo sapiens) it was 10 to 25 µM; against Human Calpain 1/NS1 it was less than 3 µM; at Human Calpain 9/NS1 it was less than 3 µM.

`Cc1nc(-c2ccccc2F)c(C(=O)NC(Cc2ccc(Cl)cc2)C(=O)C(N)=O)o1` (centres unmarked) [Compound 96, N-(4-AMINO-1-(4-CHLOROPHENYL)-3,4-DIOXOBUTAN-2-YL)-4-(2-FLUOROPHENYL)-2-METHYLOXAZOLE-5-CARBOXAMIDE]: the IC50 in assay [1] (Homo sapiens) is less than 10 µM; against Human Calpain 2/NS1, less than 3 µM; in assay [2] (Homo sapiens) it was less than 10 µM; against Human Calpain 1/NS1 it was less than 3 µM; against Human Calpain 9/NS1 it was less than 3 µM.

As for `Cn1cc(C(=O)NC(Cc2ccc(Cl)cc2)C(=O)C(N)=O)c(-c2ccccc2F)n1` (centres unmarked) [Compound 97, N-(4-AMINO-1-(4-CHLOROPHENYL)-3,4-DIOXOBUTAN-2-YL)-3-(2-FLUOROPHENYL)-1-METHYL-1H-PYRAZOLE-4-CARBOXAMIDE], the half-maximal inhibitory concentration (IC50) in assay [1] (Homo sapiens) was less than 10 µM; against Human Calpain 2/NS1, less than 3 µM; in assay [2] (Homo sapiens) it was less than 10 µM; against Human Calpain 1/NS1 it was less than 3 µM; at Human Calpain 9/NS1, less than 3 µM.
